Experimental data published in patent US20240398812A1 (Caraway Therapeutics, Inc., priority 2021, published 2024).

Assays:
Format in all cases: cell-based
Settings in all cases: Table 3, compounds 201-283
TRPML2 = target: T1, TRPML2 (Homo sapiens, UniProt Q8IZK6); experiment: Fluorescent TRPML2 assay (as for TRPML1)
T1 construct: expressed in transfected cells
T1 sequence (Q8IZK6 1-566): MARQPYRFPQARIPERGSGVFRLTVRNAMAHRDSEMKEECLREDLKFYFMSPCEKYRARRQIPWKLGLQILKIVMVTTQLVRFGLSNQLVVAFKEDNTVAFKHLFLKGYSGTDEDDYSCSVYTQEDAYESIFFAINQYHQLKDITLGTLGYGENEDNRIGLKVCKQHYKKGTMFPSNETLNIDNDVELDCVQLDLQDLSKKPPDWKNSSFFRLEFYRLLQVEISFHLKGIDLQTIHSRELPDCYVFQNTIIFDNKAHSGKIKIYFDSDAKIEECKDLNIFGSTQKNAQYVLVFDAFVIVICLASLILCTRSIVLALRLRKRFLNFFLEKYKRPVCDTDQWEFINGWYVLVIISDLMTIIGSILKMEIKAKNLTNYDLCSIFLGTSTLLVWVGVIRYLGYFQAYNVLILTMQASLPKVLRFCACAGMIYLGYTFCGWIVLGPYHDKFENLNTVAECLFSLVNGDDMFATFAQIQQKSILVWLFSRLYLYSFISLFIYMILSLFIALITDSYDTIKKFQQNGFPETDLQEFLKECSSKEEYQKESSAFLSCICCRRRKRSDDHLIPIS
Summary of the method: (§1)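 EC50 came from non-linear regression of percent activity, set against on-plate positive and negative controls, using Fluo4 fluorescence (ex 480, em 540 nm). Compounds ran in triplicate from 6 nM to 20 µM final in half-log steps. Doxycycline-induced (0.5 ug/mL) HEK-293 Trex cells expressing surface-directed mutant channel were in 10 mM calcium Ringer's.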

human TRPML1 = human TRPML1 (Homo sapiens, UniProt Q9GZU1); experiment: Fluorescent TRPML1 assay (Fluo4-AM calcium fluorescence, HEK-293 Trex cells)
Chain of human TRPML1 (Q9GZU1 whole entry L15A/L16A/L577A/L578A, form open): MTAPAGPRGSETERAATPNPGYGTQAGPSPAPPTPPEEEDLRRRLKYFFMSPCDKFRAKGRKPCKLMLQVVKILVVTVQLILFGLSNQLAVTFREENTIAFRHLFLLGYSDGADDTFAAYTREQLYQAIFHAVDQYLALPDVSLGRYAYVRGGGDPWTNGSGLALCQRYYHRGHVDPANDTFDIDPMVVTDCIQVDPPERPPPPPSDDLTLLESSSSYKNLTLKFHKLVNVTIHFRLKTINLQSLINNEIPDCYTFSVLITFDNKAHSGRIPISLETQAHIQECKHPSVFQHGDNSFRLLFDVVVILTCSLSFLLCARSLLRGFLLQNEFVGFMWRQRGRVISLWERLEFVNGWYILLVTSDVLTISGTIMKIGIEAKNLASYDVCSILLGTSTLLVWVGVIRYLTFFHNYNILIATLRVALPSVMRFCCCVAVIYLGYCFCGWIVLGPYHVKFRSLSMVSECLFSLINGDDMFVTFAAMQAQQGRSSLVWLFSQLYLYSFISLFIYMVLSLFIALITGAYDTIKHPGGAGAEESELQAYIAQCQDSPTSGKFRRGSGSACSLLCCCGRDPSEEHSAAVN
Summary of the method: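 Agonist EC50 from non-linear regression of percent activity versus on-plate controls, calcium signal read at 480/540 nm. Compounds spanned 6 nM–20 μM final in triplicate. Cells: doxycycline-induced HEK-293 Trex with cell-surface human TRPML1 mutant, Fluo4-AM loaded, in Ringer's containing 10 mM calcium.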

TRPML3 = target: T2, TRPML3 (Homo sapiens, UniProt Q8TDD5); experiment: Fluorescent TRPML3 assay (as for TRPML1)
T2 construct: expressed in transfected cells
T2 sequence (Q8TDD5 1-553): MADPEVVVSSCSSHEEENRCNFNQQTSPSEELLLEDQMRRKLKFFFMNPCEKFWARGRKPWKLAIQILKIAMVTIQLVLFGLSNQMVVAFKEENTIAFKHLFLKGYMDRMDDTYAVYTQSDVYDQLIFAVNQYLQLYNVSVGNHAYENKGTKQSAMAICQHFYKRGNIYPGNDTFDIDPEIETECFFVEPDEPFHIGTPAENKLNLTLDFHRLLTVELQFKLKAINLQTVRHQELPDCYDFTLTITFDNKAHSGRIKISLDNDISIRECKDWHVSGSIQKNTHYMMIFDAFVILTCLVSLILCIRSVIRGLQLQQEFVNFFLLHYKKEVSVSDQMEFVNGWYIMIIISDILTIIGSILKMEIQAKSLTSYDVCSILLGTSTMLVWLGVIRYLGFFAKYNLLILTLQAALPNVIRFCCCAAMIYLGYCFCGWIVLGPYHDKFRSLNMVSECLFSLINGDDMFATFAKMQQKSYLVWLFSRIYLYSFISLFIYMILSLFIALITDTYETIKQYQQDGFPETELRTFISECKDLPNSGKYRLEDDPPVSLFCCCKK
Summary of the method: as §1

| EC50 (TRPML2) [nM] | EC50 (human TRPML1) [nM] | EC50 (TRPML3) [nM] | SMILES |
| --- | --- | --- | --- |
| < 100 | < 100 | < 100 | COC(C)(C)C(=O)N1C[C@H](C)N(c2ncnc3c2c(-c2ccccc2F)cn3-c2cc(C#N)ccn2)C[C@H]1C [Compound 232, 2-(5-(2-fluorophenyl)-4-((2S,5R)-4-(2-methoxy-2-methylpropanoyl)-2,5-dimethylpiperazin-1-yl)-7H-pyrrolo[2,3-d]pyrimidin-7-yl)isonicotinonitrile] |
| 100 to 500 | < 100 | 500 to 2000 | C[C@@H]1CN(c2ncnc3c2c(-c2ccccc2F)cn3-c2cc(C#N)ccn2)[C@@H](C)CN1C(=O)C1(F)CC1 [Compound 235, 2-(4-((2S,5R)-4-(1-fluorocyclopropane-1-carbonyl)-2,5-dimethylpiperazin-1-yl)-5-(2-fluorophenyl)-7H-pyrrolo[2,3-d]pyrimidin-7-yl)isonicotinonitrile] |
| > 2000 | 100 to 500 | 500 to 2000 | C[C@@H]1CN(c2ncnc3c2c(C2CCC2)cn3-c2cc(C#N)ccn2)[C@@H](C)CN1C(=O)C(C)(C)C [Compound 237, 2-(5-cyclobutyl-4-((2S,5R)-2,5-dimethyl-4-pivaloylpiperazin-1-yl)-7H-pyrrolo[2,3-d]pyrimidin-7-yl)isonicotinonitrile] |
| 500 to 2000 | < 100 | < 100 | C[C@@H]1CN(c2ncnc3c2c(C2CCC2)cn3-c2cc(C#N)ccn2)[C@@H](C)CN1C(=O)CC(C)(C)C(F)(F)F [Compound 239, 2-(5-cyclobutyl-4-((2S,5R)-2,5-dimethyl-4-(4,4,4-trifluoro-3,3-dimethylbutanoyl)piperazin-1-yl)-7H-pyrrolo[2,3-d]pyrimidin-7-yl)isonicotinonitrile] |
| 100 to 500 | 100 to 500 | < 100 | C[C@@H]1CN(c2ncnc3c2c(C2CCC2)cn3-c2cc(C#N)ccn2)[C@@H](C)CN1C(=O)C(C)(C)C(F)(F)F [Compound 240, 2-(5-cyclobutyl-4-((2S,5R)-2,5-dimethyl-4-(3,3,3-trifluoro-2,2-dimethylpropanoyl)piperazin-1-yl)-7H-pyrrolo[2,3-d]pyrimidin-7-yl)isonicotinonitrile] |
| 100 to 500 | < 100 | 100 to 500 | COC(C)(C)C(=O)N1CCN(c2ncnc3c2c(-c2ccccc2F)cn3-c2cc(C#N)ccn2)[C@@H](C)C1 [Compound 242, (S)-2-(5-(2-fluorophenyl)-4-(4-(2-methoxy-2-methylpropanoyl)-2-methylpiperazin-1-yl)-7H-pyrrolo[2,3-d]pyrimidin-7-yl)isonicotinonitrile] |
| 500 to 2000 | 100 to 500 | 100 to 500 | COC(C)(C)C(=O)N1C[C@H](C)N(c2ncnc3c2c(C2CC2)cn3-c2cccc(F)c2)C[C@H]1C [Compound 246, 1-((2R,5S)-4-(5-cyclopropyl-7-(3-fluorophenyl)-7H-pyrrolo[2,3-d]pyrimidin-4-yl)-2,5-dimethylpiperazin-1-yl)-2-methoxy-2-methylpropan-1-one] |
| 500 to 2000 | < 100 | 500 to 2000 | C[C@@H]1CN(c2ncnc3c2c(-c2ccccc2F)cn3-c2cc(F)ccn2)[C@@H](C)CN1C(=O)C1(F)CC1 [Compound 247, (1-fluorocyclopropyl)((2R,5S)-4-(5-(2-fluorophenyl)-7-(4-fluoropyridin-2-yl)-7H-pyrrolo[2,3-d]pyrimidin-4-yl)-2,5-dimethylpiperazin-1-yl)methanone] |
| > 2000 | 100 to 500 | 500 to 2000 | C[C@@H]1CN(c2ncnc3c2c(C2CCC2)cn3-c2cccc(F)c2)[C@@H](C)CN1C(=O)C(C)(C)C [Compound 250, 1-((2R,5S)-4-(5-cyclobutyl-7-(3-fluorophenyl)-7H-pyrrolo[2,3-d]pyrimidin-4-yl)-2,5-dimethylpiperazin-1-yl)-2,2-dimethylpropan-1-one] |
| 500 to 2000 | 100 to 500 | 100 to 500 | C[C@@H]1CN(c2ncnc3c2c(C2CCC2)cn3-c2cccc(F)c2)[C@@H](C)CN1C(=O)CC(C)(C)C(F)(F)F [Compound 251, 1-((2R,5S)-4-(5-cyclobutyl-7-(3-fluorophenyl)-7H-pyrrolo[2,3-d]pyrimidin-4-yl)-2,5-dimethylpiperazin-1-yl)-4,4,4-trifluoro-3,3-dimethylbutan-1-one] |
| 500 to 2000 | 100 to 500 | 100 to 500 | C[C@@H]1CN(c2ncnc3c2c(C2CCC2)cn3-c2cccc(F)c2)[C@@H](C)CN1C(=O)C(C)(C)C(F)(F)F [Compound 252, 1-((2R,5S)-4-(5-cyclobutyl-7-(3-fluorophenyl)-7H-pyrrolo[2,3-d]pyrimidin-4-yl)-2,5-dimethylpiperazin-1-yl)-3,3,3-trifluoro-2,2-dimethylpropan-1-one] |
| 500 to 2000 | < 100 | 100 to 500 | C[C@@H]1CN(c2ncnc3c2c(C2CCC2)cn3-c2cccc(Cl)c2)[C@@H](C)CN1C(=O)C(C)(C)C [Compound 253, 1-((2R,5S)-4-(7-(3-chlorophenyl)-5-cyclobutyl-7H-pyrrolo[2,3-d]pyrimidin-4-yl)-2,5-dimethylpiperazin-1-yl)-2,2-dimethylpropan-1-one] |
| > 2000 | 500 to 2000 | 500 to 2000 | C[C@@H]1CN(c2ncnc3c2c(C2CCC2)cn3-c2cc(F)cc(F)c2)[C@@H](C)CN1C(=O)C(C)(C)C [Compound 255, 1-((2R,5S)-4-(5-cyclobutyl-7-(3,5-difluorophenyl)-7H-pyrrolo[2,3-d]pyrimidin-4-yl)-2,5-dimethylpiperazin-1-yl)-2,2-dimethylpropan-1-one] |
| > 2000 | 500 to 2000 | 500 to 2000 | C[C@@H]1CN(c2ncnc3c2c(C2CCC2)cn3-c2cc(F)cc(F)c2)[C@@H](C)CN1C(=O)CC(C)(C)C(F)(F)F [Compound 256, 1-((2R,5S)-4-(5-cyclobutyl-7-(3,5-difluorophenyl)-7H-pyrrolo[2,3-d]pyrimidin-4-yl)-2,5-dimethylpiperazin-1-yl)-4,4,4-trifluoro-3,3-dimethylbutan-1-one] |
| 100 to 500 | < 100 | 500 to 2000 | C[C@@H]1CN(c2ncnc3c2c(C2CCC2)cn3-c2cccc(Cl)c2)[C@@H](C)CN1C(=O)C(C)(C)C(F)(F)F [Compound 257, 1-((2R,5S)-4-(7-(3-chlorophenyl)-5-cyclobutyl-7H-pyrrolo[2,3-d]pyrimidin-4-yl)-2,5-dimethylpiperazin-1-yl)-3,3,3-trifluoro-2,2-dimethylpropan-1-one] |
| 500 to 2000 | 100 to 500 | 100 to 500 | C[C@@H]1CN(c2ncnc3c2c(C2CCC2)cn3-c2cccc(Cl)c2)[C@@H](C)CN1C(=O)CC(C)(C)C(F)(F)F [Compound 258, 1-((2R,5S)-4-(7-(3-chlorophenyl)-5-cyclobutyl-7H-pyrrolo[2,3-d]pyrimidin-4-yl)-2,5-dimethylpiperazin-1-yl)-4,4,4-trifluoro-3,3-dimethylbutan-1-one] |
| 500 to 2000 | 100 to 500 | 100 to 500 | C[C@@H]1CN(c2ncnc3c2c(C2CCC2)cn3-c2cc(F)cc(F)c2)[C@@H](C)CN1C(=O)C(C)(C)C(F)(F)F [Compound 259, 1-((2R,5S)-4-(5-cyclobutyl-7-(3,5-difluorophenyl)-7H-pyrrolo[2,3-d]pyrimidin-4-yl)-2,5-dimethylpiperazin-1-yl)-3,3,3-trifluoro-2,2-dimethylpropan-1-one] |
